Measurements from patent US11738007B2, “Treatment of glaucoma using endothelin receptor antagonists” (Perfuse Therapeutics, Inc., priority 2019, dated 2023).
Where “and” joins values, the source holds several entries; their conditions need not be identical. Equal values may be shown once. Read-outs that look alike come from different tables or passages of the source.

What was measured:
[1] = tested on: oxygen-induced ischemic retinopathy; test: Mouse oxygen-induced ischemic retinopathy (OIR) model; type: in vivo, mice; conditions: IVT 1 μL of 2 μg/μL, single dose; 24, 48, 96 hours
Method: A relevant mice model was used to obtain the retinal hypoxia area in mice with oxygen-induced ischemic retinopathy (OIR) at different time points, as shown in FIG. 4. […] Briefly, at P17, mice with OIR (n=60) were given an injection of ET-1 antagonist (1 μL of 2 μg/μL Edonentan formulation, single dose) in one eye and PBS in the fellow eye. At 24, 48, and 96 hours after injection, mice (n=10 for each time point) were euthanized and the retinas were dissected and stained with GSA lectin and hypoxyprobe. The area of NV, area of retinal hypoxia, and the area of retinal nonperfusion were determined for each retina.

[2] = target: T1, ETB receptor (Homo sapiens, UniProt P24530); test: Functional potency for ETB receptor; type: biochemical
T1 sequence (P24530 27-442): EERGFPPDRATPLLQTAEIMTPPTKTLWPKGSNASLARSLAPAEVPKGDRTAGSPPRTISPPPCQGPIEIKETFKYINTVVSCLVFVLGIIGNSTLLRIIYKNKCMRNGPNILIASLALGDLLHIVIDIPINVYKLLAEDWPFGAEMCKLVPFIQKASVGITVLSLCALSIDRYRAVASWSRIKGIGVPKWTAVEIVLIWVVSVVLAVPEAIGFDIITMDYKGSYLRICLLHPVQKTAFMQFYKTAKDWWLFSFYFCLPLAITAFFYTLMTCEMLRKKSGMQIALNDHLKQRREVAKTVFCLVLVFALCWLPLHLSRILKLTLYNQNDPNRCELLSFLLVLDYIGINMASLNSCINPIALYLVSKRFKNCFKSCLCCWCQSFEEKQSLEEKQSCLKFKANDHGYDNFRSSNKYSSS
Text: (§1) In the above table, the physicochemical data, e.g., solubility, were obtained following standard protocols known in the field (see, e.g., Reis et al., Mini Rev Med Chem., 2010, 10(11):1071-6; Avdeef et al., Expert Opin Drug Metab Toxicol., 2005, 1(2):325-42; Bharate et al., Comb Chem High Throughput Screen., 2016, 19(6):461-9; and Jain et al., J Pharm Biomed Anal., 2013, 86:11-35); and the biochemical data, i.e., potency for ETA/ETB, were obtained following the protocols known in the field (see, e.g., Kirkby et al., Br J Pharmacol., 2008, 153(6):1105-19; and Maguire et al., Br J Pharmacol., 2014, 171(24):5555-72).

[3] = Pharmacokinetics after topical administration in the rabbit; type: in vivo, Dutch-belted rabbits; conditions: single topical eye drop 100 μg; 10 minutes, 2 and 7 hours
Method: To determine the pharmacokinetic properties of Edonentan following topical administration in the rabbit, rabbits (Dutch-belted rabbits) received an eye drop in both eyes (100 μg of Edonentan, 35 μL dose volume/eye). After the administrations, the animals (N=2) were euthanized at different time points (e.g. 10 minutes (immediately after pot-dose), 2 and 7 hours) and tissues were collected for analysis. List of tissues collected include plasma, retina, vitreous humor and bulbar conjunctiva.

[4] = tested on: laser-induced glaucoma; test: Laser-induced non-human primate glaucoma model, optic nerve head blood flow (LSFG); type: in vivo, rhesus macaque, Macaca mulatta; conditions: IVT 50 μL of 0.02, 0.2 or 2.0 mg/mL, glaucomatous eye, over 6 hours
Method: Non-human primates (rhesus macaque, Macaca mulatta) were obtained for this study. One eye of each animal underwent induction of elevation of intraocular pressure (IOP) by repeated laser photocoagulation of the trabecular meshwork. Imaging sessions were repeated to monitor the optic nerve head (ONH) and retinal structural changes. A study was performed to compare an experimental glaucoma eye and a contralateral healthy eye (control) of three non-human primates in global average mean blur rate (MBR) and MBR change from baseline over time as an index of ONH blood flow in a laser-induced glaucoma model. More specifically, a vehicle control, 0.02 mg/mL of Edonentan, 0.2 mg/mL of Edonentan, or 2.0 mg/mL of Edonentan was intravitreally administered (50 μL) to a glaucomatous eye of each of three non-human primates (rhesus macaque, Macaca mulatta). These graphs show the ONH blood flow in the three non-human primates after IVT administration of a vehicle alone (FIG. 7A, FIG. 7E, and FIG. 7I), 0.02 mg/mL of Edonentan (FIG. 7B, FIG. 7F, and FIG. 7J), 0.2 mg/mL of Edonentan (FIG. 7C, FIG. 7G, and FIG. 7K) or 2.0 mg/mL of Edonentan (FIG. 7D, FIG. 7H, and FIG. 7L).

[5] = Solubility; type: physicochemical
Text: as §1

[6] = Pharmacokinetics after intravitreal administration in the rabbit; type: in vivo, rabbits (Oryctolagus cuniculus); conditions: plasma and ocular tissues, FIG. 9A-9D
Method: To determine the pharmacokinetic and safety properties of Edonentan following intravitreal administration in the rabbit, rabbits (Oryctolagus cuniculus) received bilateral intravitreal injections (20 μL injection volume/eye). Following the injections, animals were tranquilized with a ketamine/xylazine cocktail, and then the animals were euthanized with an overdose of sodium pentobarbital (Euthasol). Animals designated for the pharmacokinetic analysis were euthanized at different time points (e.g. 12, 16, 24, 36 and 48 hours). At least 1.0 mL of whole blood was drawn from the marginal ear vein or cardiac puncture (terminal bleed only) into K2EDTA tubes for plasma collection and processed for analytical analysis.
Immediately following euthanasia, the eyes was enucleated. Aqueous humor from both eyes was removed via syringe and snap frozen for analysis. Eyes were dissected when frozen to isolate various ocular tissues and minimize drug diffusion to adjacent tissues. Tissues from left and right eyes were collected in separate vials for analysis. List of tissues collected include plasma and aqueous humor, iris/ciliary body (ICB), retina, vitreous humor and RPE/choroid. The pharmacokinetic properties of intravitreally delivered Edonentan in rabbits are shown in FIG. 9A, FIG. 9B, FIG. 9C and FIG. 9D.

SMILES: Cc1onc(NS(=O)(=O)c2ccccc2-c2ccc(-c3ncco3)cc2CN(C)C(=O)CC(C)(C)C)c1C [Edonentan, N-[[2′-[[(4,5-dimethyl-3-isoxazolyl)amino]sulfonyl]-4-(2-oxazolyl)[1,1′-biphenyl]-2-yl]methyl]-N,3,3-trimethylbutanamide]
- Retinal hypoxia area [1]: improvement
- IC50 [2]: 590 nM
- Detection in plasma, retina, vitreous humor and bulbar conjunctiva [3]: detected in all tissues examined at all timepoints
- Optic nerve head (ONH) blood flow, mean blur rate (MBR) [4]: improvement of ONH blood flow in a dose-dependent manner
- solubility ([5]; aqueous buffer, pH 7, amorphous form, read-out: Solubility at pH 7): 326 µg/mL and 607 µM
- solubility ([5]; ethyl acetate, organic solvent or mixture, read-out: Solubility in Ethyl Acetate): > 8900 µg/mL and > 16800 µM
- Solubility in Ethyl Acetate (rating) ([5]; ethyl acetate, rating in words): Good
- solubility ([5]; pH 2, simulated gastric fluid, read-out: Solubility at pH 2): < 0.54 µg/mL and < 1 µM
- t1/2 [6]: longer
